Results from publication PMC5297726, “Anti-Neuroblastoma Properties of a Recombinant Sunflower Lectin” (International Journal of Molecular Sciences, 2017).

Molecular target: T1, Trx-rHelja (Helianthus annuus, UniProt A0A059VAE5)
T1 construct: N-terminal thioredoxin, His6 and enterokinase-site tags kept; E. coli Rosetta-gami2 (DE3) pLysS; about 35 kDa fusion (Helja about 20 kDa)
Test: affinity chromatography on D-mannose-agarose, elution with mannose, SDS-PAGE
Format: binding
Conditions: 50 mM Tris-HCl pH 7.5, 100 mM NaCl; D-mannose immobilised on agarose; eluted with 200 mM free mannose

T1 sequence (A0A059VAE5 entry or part of it): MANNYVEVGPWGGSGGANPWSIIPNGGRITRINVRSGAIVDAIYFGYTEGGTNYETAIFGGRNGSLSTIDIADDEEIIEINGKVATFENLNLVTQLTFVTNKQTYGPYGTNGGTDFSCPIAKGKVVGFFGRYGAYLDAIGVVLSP

OC[C@H]1OC(O)[C@@H](O)[C@@H](O)[C@@H]1O (stereo partly shown) [mannose]
affinity chromatography on D-mannose-agarose, elution with mannose, SDS-PAGE: the recombinant protein was bounded to the matrix and eluted with mannose
